The values that follow come from the supplement of paper PMC10307832.

Holding throughout (assay): relative viability (nuclei count vs DMSO), 5 days (fraction); higher = more cells survive
Compound in assay [1]: COc1cc2nc(N3CCCN(C)CC3)nc(NC3CCN(Cc4ccccc4)CC3)c2cc1OC + CC1(C)CCC(c2ccc(Cl)cc2)=C(CN2CCN(c3ccc(C(=O)NS(=O)(=O)c4ccc(N[C@H](CCN5CCOCC5)CSc5ccccc5)c(S(=O)(=O)C(F)(F)F)c4)cc3)CC2)C1 [Navitoclax] (partner 0.5 µM)
An outline of the steps:
(§1)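 A single step with final 0.05% Triton X-100, 1% formaldehyde and 1 ug/ml Hoechst fixed the cells and stained nuclei 5 days after treatment. Lung cancer cell lines in 1536-well plates had been treated by pin tool the day after seeding with one drug alone or a fixed anchor-drug dose plus five library-drug doses (not always all listed) in √10 steps, and nuclei were counted on 4× images. Relative viability is the ratio of nuclei in treated wells to nuclei in vehicle wells, taken as the median of duplicate plates.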

Compound in assay [2]: COc1cc2nc(N3CCCN(C)CC3)nc(NC3CCN(Cc4ccccc4)CC3)c2cc1OC + CS(=O)(=O)N1CCN(Cc2cc3nc(-c4cccc5[nH]ncc45)nc(N4CCOCC4)c3s2)CC1 [Pictilisib] (partner 1 µM)
An outline of the steps:
as §1

Compound in assay [3]: COc1cc2nc(N3CCCN(C)CC3)nc(NC3CCN(Cc4ccccc4)CC3)c2cc1OC + O=C(c1cc(Cc2n[nH]c(=O)c3ccccc23)ccc1F)N1CCN(C(=O)C2CC2)CC1 [Olaparib] (partner 8 µM)
The method in brief:
as §1

Compound in the assay “AZD6482 + Dasatinib”: Cc1cc([C@@H](C)Nc2ccccc2C(=O)O)c2nc(N3CCOCC3)cc(=O)n2c1 [AZD6482] + Cc1nc(Nc2ncc(C(=O)Nc3c(C)cccc3Cl)s2)cc(N2CCN(CCO)CC2)n1 [Dasatinib] (partner 0.075 µM)
The method in brief: as §1

For the cell line UMC-11, the relative viability in assay [1] (first compound 0.2 µM) was 0.315; in assay [1] (first compound 0.6325 µM), 0.333; in assay [1] (first compound 2 µM), 0.317; in assay [1] (first compound 6.325 µM) it was 0.254; in assay [2] (first compound 0.2 µM), 0.84; in assay [2] (first compound 0.6325 µM), 0.805. Also, the relative viability in assay [2] (first compound 2 µM) came to 0.84; in assay [2] (first compound 6.325 µM), 0.681; in assay [3] (first compound 0.2 µM), 0.38; in assay [3] (first compound 0.6325 µM) it was 0.391; in assay [3] (first compound 2 µM) it was 0.385; in assay [3] (first compound 6.325 µM), 0.221. In addition, the relative viability turned out to be 0.457 with AZD6482 + Dasatinib (first compound 0.08 µM); 0.48 with AZD6482 + Dasatinib (first compound 0.253 µM); 0.472 with AZD6482 + Dasatinib (first compound 0.8 µM); 0.416 in the assay with AZD6482 + Dasatinib (first compound 2.53 µM); 0.559 with AZD6482 + Dasatinib (first compound 8 µM).
